# Columns and labels:
# Experiment in all cases: radiometric filter-binding kinase assay, Kinase HotSpot
# Conditions in all cases: compound 0.5 µM; ATP 10 µM
# AURKB (human) = AURKB (human) (UniProt Q96GD4)
# AXL (human) = AXL (human) (UniProt P30530)
# CAMK1G (human) = CAMK1G (human) (UniProt Q96NX5)
# CDK9 CCNK (human) = CDK9 CCNK (human) (UniProt O75909+P50750)
# CDK9 CCNT1 (human) = CDK9 CCNT1 (human) (UniProt P50750+O60563)
# CSNK1E (human) = CSNK1E (human) (UniProt P49674)
# DAPK1 (human) = DAPK1 (human) (UniProt P53355)
# FLT1 (human) = FLT1 (human) (UniProt P17948)
# FLT3 (human) = FLT3 (human) (UniProt P36888)
# GSG2 (human) = GSG2 (human) (UniProt Q8TF76)
# HIPK2 (human) = HIPK2 (human) (UniProt Q9H2X6)
# HIPK4 (human) = HIPK4 (human) (UniProt Q8NE63)
# IGF1R (human) = IGF1R (human) (UniProt P08069)
# ITK (human) = ITK (human) (UniProt Q08881)
# MAP3K14 (human) = MAP3K14 (human) (UniProt Q99558)
# MAP3K3 (human) = MAP3K3 (human) (UniProt Q99759)
# MAP3K5 (human) = MAP3K5 (human) (UniProt Q99683)
# MAP3K9 (human) = MAP3K9 (human) (UniProt P80192)
# MAPKAPK2 (human) = MAPKAPK2 (human) (UniProt P49137)
# MYO3B (human) = MYO3B (human) (UniProt Q8WXR4)
# NLK (human) = NLK (human) (UniProt Q9UBE8)
# NTRK2 (human) = NTRK2 (human) (UniProt Q16620)
# PAK1 (human) = PAK1 (human) (UniProt Q13153)
# PLK2 (human) = PLK2 (human) (UniProt Q9NYY3)
# PLK3 (human) = PLK3 (human) (UniProt Q9H4B4)
# PRKCE (human) = PRKCE (human) (UniProt Q02156)
# PTK2B (human) = PTK2B (human) (UniProt Q14289)
# RPS6KB2 (human) = RPS6KB2 (human) (UniProt Q9UBS0)
# SGK3 (human) = SGK3 (human) (UniProt Q96BR1)
# SRPK2 (human) = SRPK2 (human) (UniProt P78362)
# STK33 (human) = STK33 (human) (UniProt Q9BYT3)
# STK38 (human) = STK38 (human) (UniProt Q15208)
# STK4 (human) = STK4 (human) (UniProt Q13043)
# SYK (human) = SYK (human) (UniProt P43405)
# TAOK3 (human) = TAOK3 (human) (UniProt Q9H2K8)
# TEK (human) = TEK (human) (UniProt Q02763)
# TXK (human) = TXK (human) (UniProt P42681)
# [1] = molecular target: TYK2 JH1 catalytic (human) (UniProt P29597)
# WNK2 (human) = WNK2 (human) (UniProt Q9Y3S1)
# YES1 (human) = YES1 (human) (UniProt P07947)
# ZAP70 (human) = ZAP70 (human) (UniProt P43403)
# CLK1 (human) = CLK1 (human) (UniProt P49759)
# Chain of STK4 (human) (Q13043 whole entry, looked up): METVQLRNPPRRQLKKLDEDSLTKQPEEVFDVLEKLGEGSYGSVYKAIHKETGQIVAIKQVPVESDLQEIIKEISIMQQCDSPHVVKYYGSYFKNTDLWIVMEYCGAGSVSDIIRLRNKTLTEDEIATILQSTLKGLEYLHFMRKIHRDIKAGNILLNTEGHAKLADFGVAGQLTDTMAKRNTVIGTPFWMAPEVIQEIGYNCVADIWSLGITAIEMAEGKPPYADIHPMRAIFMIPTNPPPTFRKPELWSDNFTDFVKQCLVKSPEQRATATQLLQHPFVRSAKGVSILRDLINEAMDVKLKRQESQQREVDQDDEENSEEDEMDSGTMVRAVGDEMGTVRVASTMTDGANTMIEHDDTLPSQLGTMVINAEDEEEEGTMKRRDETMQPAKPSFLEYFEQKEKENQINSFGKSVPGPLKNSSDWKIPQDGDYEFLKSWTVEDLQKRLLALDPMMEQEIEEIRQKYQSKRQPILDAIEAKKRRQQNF
# Chain of RPS6KB2 (human) (Q9UBS0 whole entry, looked up): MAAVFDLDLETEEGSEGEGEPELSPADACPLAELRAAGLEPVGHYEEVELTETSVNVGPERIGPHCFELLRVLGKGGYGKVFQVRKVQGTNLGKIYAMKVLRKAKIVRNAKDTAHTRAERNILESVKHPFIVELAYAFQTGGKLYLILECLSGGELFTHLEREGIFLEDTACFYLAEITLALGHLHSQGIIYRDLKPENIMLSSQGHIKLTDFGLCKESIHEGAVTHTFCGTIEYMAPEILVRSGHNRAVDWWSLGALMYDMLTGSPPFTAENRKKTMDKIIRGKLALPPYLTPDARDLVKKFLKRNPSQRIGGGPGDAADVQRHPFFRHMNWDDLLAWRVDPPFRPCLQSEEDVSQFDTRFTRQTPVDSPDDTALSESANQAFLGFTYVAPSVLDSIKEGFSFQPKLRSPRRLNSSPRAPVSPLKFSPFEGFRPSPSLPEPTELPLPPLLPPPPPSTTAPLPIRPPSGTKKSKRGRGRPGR
# Chain of SRPK2 (human) (P78362 whole entry, looked up): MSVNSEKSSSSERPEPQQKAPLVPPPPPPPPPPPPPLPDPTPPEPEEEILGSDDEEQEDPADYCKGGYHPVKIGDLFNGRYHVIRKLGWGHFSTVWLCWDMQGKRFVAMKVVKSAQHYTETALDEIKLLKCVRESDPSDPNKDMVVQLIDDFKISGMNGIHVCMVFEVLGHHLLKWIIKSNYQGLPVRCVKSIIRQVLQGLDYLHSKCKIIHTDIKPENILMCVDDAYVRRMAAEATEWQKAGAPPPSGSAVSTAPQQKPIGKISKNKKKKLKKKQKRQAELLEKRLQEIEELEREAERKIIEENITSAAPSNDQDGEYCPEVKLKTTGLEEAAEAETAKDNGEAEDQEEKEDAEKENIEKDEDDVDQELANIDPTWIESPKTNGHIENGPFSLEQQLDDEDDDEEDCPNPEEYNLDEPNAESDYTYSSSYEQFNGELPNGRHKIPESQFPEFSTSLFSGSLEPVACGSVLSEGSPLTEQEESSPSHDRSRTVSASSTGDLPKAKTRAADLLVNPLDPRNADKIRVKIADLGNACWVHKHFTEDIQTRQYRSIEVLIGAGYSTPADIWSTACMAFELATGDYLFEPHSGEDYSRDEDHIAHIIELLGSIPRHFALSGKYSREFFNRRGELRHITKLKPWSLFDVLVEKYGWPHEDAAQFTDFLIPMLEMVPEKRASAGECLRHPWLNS
# Chain of TAOK3 (human) (Q9H2K8 whole entry, looked up): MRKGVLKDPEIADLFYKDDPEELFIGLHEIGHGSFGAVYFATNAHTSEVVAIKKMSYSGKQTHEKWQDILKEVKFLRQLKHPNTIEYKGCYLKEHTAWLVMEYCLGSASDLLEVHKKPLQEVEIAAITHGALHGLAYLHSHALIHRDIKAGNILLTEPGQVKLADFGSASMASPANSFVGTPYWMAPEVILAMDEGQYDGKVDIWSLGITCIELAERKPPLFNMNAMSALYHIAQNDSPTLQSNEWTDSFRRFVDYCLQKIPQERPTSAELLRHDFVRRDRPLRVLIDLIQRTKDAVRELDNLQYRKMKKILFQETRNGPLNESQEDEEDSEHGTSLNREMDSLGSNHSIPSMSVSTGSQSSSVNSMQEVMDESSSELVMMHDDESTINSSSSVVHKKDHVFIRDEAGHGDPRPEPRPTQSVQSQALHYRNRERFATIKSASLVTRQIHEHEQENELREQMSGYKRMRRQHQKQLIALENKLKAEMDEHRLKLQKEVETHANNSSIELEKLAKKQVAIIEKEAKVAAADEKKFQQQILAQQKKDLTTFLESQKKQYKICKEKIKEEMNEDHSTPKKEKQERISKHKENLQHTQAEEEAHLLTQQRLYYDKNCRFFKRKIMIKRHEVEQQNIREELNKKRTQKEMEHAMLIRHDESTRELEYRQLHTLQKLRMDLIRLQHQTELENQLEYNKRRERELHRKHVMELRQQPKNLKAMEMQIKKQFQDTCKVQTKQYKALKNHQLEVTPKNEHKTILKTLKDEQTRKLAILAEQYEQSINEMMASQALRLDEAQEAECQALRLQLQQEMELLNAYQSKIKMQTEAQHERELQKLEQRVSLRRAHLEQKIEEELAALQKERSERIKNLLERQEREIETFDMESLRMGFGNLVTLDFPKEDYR
# Chain of YES1 (human) (P07947 whole entry, looked up): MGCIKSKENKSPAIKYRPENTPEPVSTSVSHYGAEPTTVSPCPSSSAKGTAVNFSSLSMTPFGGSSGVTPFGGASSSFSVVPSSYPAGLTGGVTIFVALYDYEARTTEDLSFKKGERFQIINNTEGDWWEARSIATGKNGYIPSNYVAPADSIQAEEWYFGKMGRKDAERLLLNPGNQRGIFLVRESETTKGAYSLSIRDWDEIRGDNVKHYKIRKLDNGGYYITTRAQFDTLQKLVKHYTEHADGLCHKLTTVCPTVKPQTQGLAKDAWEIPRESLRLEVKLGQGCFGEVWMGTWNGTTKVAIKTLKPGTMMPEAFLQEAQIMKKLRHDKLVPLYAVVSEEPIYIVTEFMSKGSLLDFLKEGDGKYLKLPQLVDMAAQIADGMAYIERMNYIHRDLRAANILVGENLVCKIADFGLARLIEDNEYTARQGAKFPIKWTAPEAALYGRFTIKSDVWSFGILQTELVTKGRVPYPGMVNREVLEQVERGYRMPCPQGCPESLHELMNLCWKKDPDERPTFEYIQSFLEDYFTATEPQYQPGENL
# Chain of STK38 (human) (Q15208 whole entry, looked up): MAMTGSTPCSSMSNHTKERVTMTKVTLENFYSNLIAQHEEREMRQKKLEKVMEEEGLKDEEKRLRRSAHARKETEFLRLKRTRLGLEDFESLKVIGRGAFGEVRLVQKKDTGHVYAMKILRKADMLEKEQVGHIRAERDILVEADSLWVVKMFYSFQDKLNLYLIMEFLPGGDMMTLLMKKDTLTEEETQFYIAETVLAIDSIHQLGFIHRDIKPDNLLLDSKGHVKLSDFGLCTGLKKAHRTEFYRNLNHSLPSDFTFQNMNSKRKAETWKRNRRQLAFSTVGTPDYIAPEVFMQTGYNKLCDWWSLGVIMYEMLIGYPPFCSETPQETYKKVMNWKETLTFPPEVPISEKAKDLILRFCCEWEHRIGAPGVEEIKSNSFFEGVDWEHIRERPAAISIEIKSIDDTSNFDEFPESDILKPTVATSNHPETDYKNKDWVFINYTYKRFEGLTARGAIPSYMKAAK
# Chain of MAP3K3 (human) (Q99759 whole entry, looked up): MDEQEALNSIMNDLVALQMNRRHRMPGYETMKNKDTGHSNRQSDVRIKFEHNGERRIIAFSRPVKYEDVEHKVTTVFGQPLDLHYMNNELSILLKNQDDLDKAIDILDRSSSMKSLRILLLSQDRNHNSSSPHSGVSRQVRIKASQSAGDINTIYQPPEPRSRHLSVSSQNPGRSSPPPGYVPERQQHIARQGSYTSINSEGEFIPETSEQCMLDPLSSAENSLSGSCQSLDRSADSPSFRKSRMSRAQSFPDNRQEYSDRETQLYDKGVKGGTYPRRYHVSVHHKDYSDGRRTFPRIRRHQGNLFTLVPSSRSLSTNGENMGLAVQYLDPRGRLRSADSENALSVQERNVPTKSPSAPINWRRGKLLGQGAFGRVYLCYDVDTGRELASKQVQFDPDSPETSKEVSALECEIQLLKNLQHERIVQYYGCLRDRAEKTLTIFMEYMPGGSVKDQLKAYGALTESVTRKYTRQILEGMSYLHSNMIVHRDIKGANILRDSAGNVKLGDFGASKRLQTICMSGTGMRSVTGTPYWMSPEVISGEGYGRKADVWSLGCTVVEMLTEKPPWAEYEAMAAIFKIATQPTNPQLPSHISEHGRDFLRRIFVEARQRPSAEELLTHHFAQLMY
# Chain of PLK3 (human) (Q9H4B4 whole entry, looked up): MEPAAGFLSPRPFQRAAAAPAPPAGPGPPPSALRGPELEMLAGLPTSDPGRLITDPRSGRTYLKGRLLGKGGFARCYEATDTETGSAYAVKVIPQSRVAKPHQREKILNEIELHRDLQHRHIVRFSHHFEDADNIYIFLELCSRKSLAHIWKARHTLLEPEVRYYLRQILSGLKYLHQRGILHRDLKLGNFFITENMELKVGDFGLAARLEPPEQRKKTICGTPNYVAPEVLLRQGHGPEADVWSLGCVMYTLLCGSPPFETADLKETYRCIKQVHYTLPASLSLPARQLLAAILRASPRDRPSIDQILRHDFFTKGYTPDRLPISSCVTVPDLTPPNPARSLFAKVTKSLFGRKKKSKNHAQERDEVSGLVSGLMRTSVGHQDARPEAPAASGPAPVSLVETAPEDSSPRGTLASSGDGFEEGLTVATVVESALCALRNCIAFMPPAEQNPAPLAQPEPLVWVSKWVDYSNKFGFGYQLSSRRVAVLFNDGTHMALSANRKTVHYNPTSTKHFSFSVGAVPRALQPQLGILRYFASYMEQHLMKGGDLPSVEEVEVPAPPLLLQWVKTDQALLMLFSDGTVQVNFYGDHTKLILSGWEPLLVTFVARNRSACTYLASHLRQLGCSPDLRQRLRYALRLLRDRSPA
smiles,measurement,setting,value
N#C/C(=C(/N)Sc1ccc(N)cc1)c1ccccc1C(F)(F)F,residual activity,AURKB (human),99.8%
same,residual activity,AXL (human),119%
same,residual activity,CAMK1G (human),96.6%
same,residual activity,CDK9 CCNK (human),98%
same,residual activity,CDK9 CCNT1 (human),97.7%
same,residual activity,CSNK1E (human),95.9%
same,residual activity,DAPK1 (human),104%
same,residual activity,FLT1 (human),85.4%
same,residual activity,FLT3 (human),107%
same,residual activity,GSG2 (human),99.9%
same,residual activity,HIPK2 (human),115%
same,residual activity,HIPK4 (human),100%
same,residual activity,IGF1R (human),97.4%
same,residual activity,ITK (human),97.4%
same,residual activity,MAP3K14 (human),111%
same,residual activity,MAP3K3 (human),97.7%
same,residual activity,MAP3K5 (human),108%
same,residual activity,MAP3K9 (human),85.9%
same,residual activity,MAPKAPK2 (human),103%
same,residual activity,MYO3B (human),98.3%
same,residual activity,NLK (human),108%
same,residual activity,NTRK2 (human),103%
same,residual activity,PAK1 (human),94.3%
same,residual activity,PLK2 (human),98.1%
same,residual activity,PLK3 (human),96.9%
same,residual activity,PRKCE (human),104%
same,residual activity,PTK2B (human),105%
same,residual activity,RPS6KB2 (human),105%
same,residual activity,SGK3 (human),105%
same,residual activity,SRPK2 (human),99.5%
same,residual activity,STK33 (human),92.2%
same,residual activity,STK38 (human),93.1%
same,residual activity,STK4 (human),89.7%
same,residual activity,SYK (human),99.3%
same,residual activity,TAOK3 (human),98.6%
same,residual activity,TEK (human),104%
same,residual activity,TXK (human),98.7%
same,residual activity,[1],102%
same,residual activity,WNK2 (human),109%
same,residual activity,YES1 (human),111%
same,residual activity,ZAP70 (human),102%
Cc1[nH]c(/C=C2\C(=O)Nc3ccc(S(=O)(=O)N(C)c4cccc(Cl)c4)cc32)c(C)c1C(=O)N1CCN(C)CC1,residual activity,AURKB (human),19.2%
same,residual activity,AXL (human),66.5%
same,residual activity,CAMK1G (human),92.5%
same,residual activity,CDK9 CCNK (human),90.2%
same,residual activity,CDK9 CCNT1 (human),91%
same,residual activity,CSNK1E (human),76.1%
same,residual activity,DAPK1 (human),106%
same,residual activity,FLT1 (human),74.7%
same,residual activity,FLT3 (human),26.5%
same,residual activity,GSG2 (human),102%
same,residual activity,HIPK2 (human),105%
same,residual activity,HIPK4 (human),103%
same,residual activity,IGF1R (human),103%
same,residual activity,ITK (human),87.4%
same,residual activity,MAP3K14 (human),109%
same,residual activity,MAP3K3 (human),63.6%
same,residual activity,MAP3K5 (human),105%
same,residual activity,MAP3K9 (human),95.2%
same,residual activity,MAPKAPK2 (human),104%
same,residual activity,MYO3B (human),72.5%
same,residual activity,NLK (human),106%
same,residual activity,NTRK2 (human),35.7%
same,residual activity,PAK1 (human),87.7%
same,residual activity,PLK2 (human),96.4%
same,residual activity,PLK3 (human),95%
same,residual activity,PRKCE (human),99.1%
same,residual activity,PTK2B (human),57.7%
same,residual activity,RPS6KB2 (human),98.4%
same,residual activity,SGK3 (human),101%
same,residual activity,SRPK2 (human),60.5%
same,residual activity,STK33 (human),67.9%
same,residual activity,STK38 (human),102%
same,residual activity,STK4 (human),49.1%
same,residual activity,SYK (human),96.7%
same,residual activity,TAOK3 (human),61.5%
same,residual activity,TEK (human),90.8%
same,residual activity,TXK (human),102%
same,residual activity,[1],75.1%
same,residual activity,WNK2 (human),112%
same,residual activity,YES1 (human),27%
same,residual activity,ZAP70 (human),94.4%
CNC(=O)c1cc(Oc2ccc(NC(=O)Nc3ccc(Cl)c(C(F)(F)F)c3)cc2)ccn1,residual activity,AXL (human),105%
same,residual activity,CAMK1G (human),107%
same,residual activity,CDK9 CCNK (human),101%
same,residual activity,CDK9 CCNT1 (human),98.3%
same,residual activity,CLK1 (human),97.7%
same,residual activity,CSNK1E (human),95.9%
same,residual activity,DAPK1 (human),101%
same,residual activity,FLT1 (human),50.5%
same,residual activity,FLT3 (human),9.22%
same,residual activity,GSG2 (human),99.3%
same,residual activity,HIPK4 (human),4.85%
same,residual activity,IGF1R (human),94.3%
same,residual activity,ITK (human),106%
same,residual activity,MAP3K14 (human),96.4%
same,residual activity,MAP3K3 (human),107%
same,residual activity,MAP3K5 (human),103%
same,residual activity,MAP3K9 (human),103%
same,residual activity,MAPKAPK2 (human),100%
same,residual activity,MYO3B (human),85.6%
same,residual activity,NLK (human),99.1%
same,residual activity,NTRK2 (human),90%
same,residual activity,PAK1 (human),108%
same,residual activity,PLK2 (human),101%
same,residual activity,PLK3 (human),99.3%
same,residual activity,PRKCE (human),96.4%
same,residual activity,PTK2B (human),101%
same,residual activity,RPS6KB2 (human),103%
same,residual activity,SGK3 (human),101%
same,residual activity,SRPK2 (human),102%
same,residual activity,STK33 (human),83.9%
same,residual activity,STK38 (human),99.8%
same,residual activity,STK4 (human),101%
same,residual activity,SYK (human),101%
same,residual activity,TAOK3 (human),63.5%
same,residual activity,TEK (human),104%
same,residual activity,TXK (human),106%
same,residual activity,[1],98.9%
same,residual activity,WNK2 (human),101%
same,residual activity,YES1 (human),82.8%
same,residual activity,ZAP70 (human),97.8%

# From the kinase profiling compilation of Christmann-Franck et al. (2016)
